Data set [1] relates to cancer cell lines. Description: Cytotoxic activity of CiTX, comparison of orders of magnitude. Format: cell-based. The conditions noted are these: this work. Here is the method:
Cell viability. […] The cell viability assay was performed using portimine-A as a positive control (Table 4). […] Table 4. Cytotoxic activity of portimine-A and ingrilimine

Data set [2] addresses T1, neuronal α3β2 nAChR subtype (Rattus norvegicus, UniProt P04757+P12390).
T1 construct: expressed in transfected cells; host or cells: Xenopus laevis oocytes injected with mRNA
Description: Two-electrode voltage clamp electrophysiology on Xenopus laevis oocytes expressing the α3β2 nAChR. In kind it is cell-based. The settings on record: portimine 100 nM - 1 mM for 45 seconds; stated for the three nAChR subtypes tested. The method, then: • Figure 1 represents the chemical structure of ingrilimine according to compound (Illa) formula. • Figure 2 represents the cytotoxic activity of ingrilimine. A2780 ovarian and HT29 colorectal carcinoma cells were grown in RPMI 1640 supplemented with 10% fetal calf serum (FCS) and 1% glutamine. U87-MG glioblastoma cells were grown in Dulbecco minimal essential medium containing 4.5 g/L glucose, 10% FCS and 1% glutamine at 37 °C in a humidified atmosphere containing 5% CO2. For IC50 determination, the cells were seeded in 96-well plates (3 × 10^3 cells/well) containing 90 µL of growth medium. After 24 h of culture, the cells were treated with ingrilimine at 10 different final concentrations. Cell viability was determined by luminescence after 72 h incubation. (a) Effect of ingrilimine on A2780 ovarian carcinoma cells. (b) Effect of ingrilimine on U87-MG glioblastoma cells. […] Sector Q normal cells that accumulated the JC-1 dye (fluorescence emission 590 nm). […] Changes in fluorescence emission were recorded by flow cytometry using the JC-1 mithocondrial membrane potential-dependent fluorescent dye. […] Phosphatidylcholine exposure in A2780 cell was quantified by flow cytometry using FITC-Annexin V. Dead or necrotic cells were detected using the vital dye propridium iodide. […]

Data set [3] relates to cancer cell lines. The settings on record: literature (Tang et al. 2023; Fribley et al. 2019); cited from earlier work.
In the next data set the test system is HCT116 cells. The experiment in a line: JC-1 mitochondrial membrane potential assay (flow cytometry). In kind it is cell-based, human. A general note: Flow cytometry measures light scatter and fluorescence of single cells or particles in a stream.

Read-outs that look alike come from different tables or passages of the source.

T1 sequence (P12390 25-500): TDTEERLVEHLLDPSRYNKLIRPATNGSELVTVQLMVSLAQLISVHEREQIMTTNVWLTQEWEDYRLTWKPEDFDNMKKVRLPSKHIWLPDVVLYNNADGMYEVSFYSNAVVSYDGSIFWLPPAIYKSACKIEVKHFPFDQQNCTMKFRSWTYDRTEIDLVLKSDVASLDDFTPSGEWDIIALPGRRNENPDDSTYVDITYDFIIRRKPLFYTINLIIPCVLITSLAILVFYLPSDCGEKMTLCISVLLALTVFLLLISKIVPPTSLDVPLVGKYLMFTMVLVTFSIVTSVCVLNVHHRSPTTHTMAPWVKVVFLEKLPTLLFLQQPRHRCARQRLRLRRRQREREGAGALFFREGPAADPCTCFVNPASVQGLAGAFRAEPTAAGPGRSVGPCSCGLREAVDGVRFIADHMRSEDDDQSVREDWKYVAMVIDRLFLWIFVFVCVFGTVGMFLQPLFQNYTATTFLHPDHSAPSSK
T1 sequence (P04757 26-499): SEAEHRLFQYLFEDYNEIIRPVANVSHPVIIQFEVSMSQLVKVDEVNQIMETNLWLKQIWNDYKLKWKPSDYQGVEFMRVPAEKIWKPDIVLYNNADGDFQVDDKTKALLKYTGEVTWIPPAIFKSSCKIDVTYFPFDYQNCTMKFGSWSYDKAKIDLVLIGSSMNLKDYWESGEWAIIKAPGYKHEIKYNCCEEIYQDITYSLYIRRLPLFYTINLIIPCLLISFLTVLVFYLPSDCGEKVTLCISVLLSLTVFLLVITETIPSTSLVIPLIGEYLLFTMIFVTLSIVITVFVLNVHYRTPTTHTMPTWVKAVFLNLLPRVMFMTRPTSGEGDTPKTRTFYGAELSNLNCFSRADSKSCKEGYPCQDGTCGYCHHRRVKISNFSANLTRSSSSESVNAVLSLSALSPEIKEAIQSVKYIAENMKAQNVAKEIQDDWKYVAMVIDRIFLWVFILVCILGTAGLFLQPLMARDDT

For `C=CC1=C[C@@H]2C[C@@H](O)[C@@H](O)/C(C)=C/C/C(C)=C/CCC3=NCCC[C@]32CC1` [Ingrilimine, ingrilimine], in the data set with cancer cell lines [1], the “cytotoxic activities, order of magnitude” value is ~10^-8 M.

`C=CC1=C[C@@H]2[C@@H]3O[C@]4(CC[C@H](O4)[C@@H](C)C[C@@H](O)C3=O)C[C@H](O)C3=NCC[C@@]32CC1` [Portimine-A]: the “inhibition of the acetylcholine-evoked current, concentration range” value in data set [2] was “micromolar range”. Besides, the “cytotoxic activities, order of magnitude” value in the data set with cancer cell lines [3] is listed as ~10^-9 M. For the same compound, the JC-1 % is 5.1% with HCT116 cells (1 nM, 24 h, cells with mitochondrial membrane depolarization); 8.1% in the data set with HCT116 cells (1 nM, 48 h); 9.2% with HCT116 cells (5 nM, 24 h).

The values are drawn from patent publication EP4624457A1, “I[…] DERIVATIVES, I[…] NEURODEGENERATIVE DISEASES” (Centre National de la Recherche Scientifique, priority 2024, dated 2025).
